# Measurements: patent publication US7148034B2, “Bioactive whey protein hydrolysate” (New Zealand Dairy Board, priority 2001, dated 2006)
# pIC50: −log10 of the molar value. Ends that are not written are not given here. Peptide text beside a SMILES is read from it.
# How the values were obtained:
# ACE-I enzyme = ACE-I enzyme (Homo sapiens, UniProt P12821); test: ACE-I activity in vitro using FAPGG as substrate; assay type: biochemical; conditions: peptides purified by reverse-phase HPLC from 10 kDa UF permeate of Example 1 hydrolysate
# Sequence of ACE-I enzyme (P12821 30-1306): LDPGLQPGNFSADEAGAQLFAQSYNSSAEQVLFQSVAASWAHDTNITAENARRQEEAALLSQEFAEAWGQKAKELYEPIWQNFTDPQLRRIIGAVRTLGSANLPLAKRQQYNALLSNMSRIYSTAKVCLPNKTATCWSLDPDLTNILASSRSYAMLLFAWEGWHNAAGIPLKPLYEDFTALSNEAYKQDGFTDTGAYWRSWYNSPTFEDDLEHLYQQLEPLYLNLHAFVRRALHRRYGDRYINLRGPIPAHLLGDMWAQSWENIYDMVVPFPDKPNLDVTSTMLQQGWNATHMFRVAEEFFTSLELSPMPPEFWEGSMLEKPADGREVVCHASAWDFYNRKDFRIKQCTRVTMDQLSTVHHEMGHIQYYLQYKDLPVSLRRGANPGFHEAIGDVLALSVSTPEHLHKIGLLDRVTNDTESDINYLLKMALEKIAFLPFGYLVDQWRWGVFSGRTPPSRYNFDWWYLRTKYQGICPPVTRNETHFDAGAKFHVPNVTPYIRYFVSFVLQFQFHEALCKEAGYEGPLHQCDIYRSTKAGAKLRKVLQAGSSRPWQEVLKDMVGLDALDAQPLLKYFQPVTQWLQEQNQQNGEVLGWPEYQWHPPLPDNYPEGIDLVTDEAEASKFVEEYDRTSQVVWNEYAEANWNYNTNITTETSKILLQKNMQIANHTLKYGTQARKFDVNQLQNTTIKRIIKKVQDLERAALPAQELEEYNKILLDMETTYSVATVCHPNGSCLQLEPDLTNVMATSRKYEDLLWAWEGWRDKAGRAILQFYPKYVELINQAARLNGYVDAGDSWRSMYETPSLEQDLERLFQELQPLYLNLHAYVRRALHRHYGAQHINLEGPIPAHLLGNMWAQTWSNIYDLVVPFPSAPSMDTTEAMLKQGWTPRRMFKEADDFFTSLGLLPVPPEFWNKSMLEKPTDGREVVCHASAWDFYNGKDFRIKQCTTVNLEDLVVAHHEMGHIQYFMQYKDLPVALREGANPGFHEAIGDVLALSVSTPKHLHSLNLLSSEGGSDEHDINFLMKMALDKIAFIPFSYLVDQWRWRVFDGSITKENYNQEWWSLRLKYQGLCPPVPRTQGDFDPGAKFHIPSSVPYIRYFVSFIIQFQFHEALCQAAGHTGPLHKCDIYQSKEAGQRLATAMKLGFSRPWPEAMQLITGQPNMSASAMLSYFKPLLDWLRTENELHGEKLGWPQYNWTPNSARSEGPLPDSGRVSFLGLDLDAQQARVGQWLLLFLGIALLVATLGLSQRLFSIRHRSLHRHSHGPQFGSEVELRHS
# Method: ACE-I activity (in vitro) in the dried product was determined using FAPGG as a substrate (Product 305–10 ex Sigma Chemical Corporation, St Louis, Mo., USA) according of the method of D W Cushman & H S Cheung (1971). ACE-I activities are expressed as the amount of material (mg/L) needed to reduce the activity of the ACE-I enzyme by 50%.
# [1] = tested on: Spontaneously hypertensive rats (SHRs); test: Acute short term effect on systolic blood pressure (tail cuff); assay type: in vivo, rat; conditions: 165 mg/kg body weight, oral in jelly, p=0.0021 after 4 hours, p<0.0001 after 8 hours
# Method: Blood pressure was measured using a tail cuff monitor and a purpose designed apparatus for measuring the blood pressure of small animals [IITC Inc, 239 Victory Blvd., Woodland Hills, Calif. 91367, USA]. Each time point was the average of 3–5 readings taken within approximately 5–10 minutes.
# Spontaneously hypertensive rats (SHRs) were sourced from the Animal Resource Centre, Western Australia.
# The test substances were given to each rat on a per kg body weight basis unless otherwise stated. The individual dose for each animal was incorporated into a flavoured jelly, which was readily consumed by the animals.
# The three samples evaluated for short tern blood pressure response were a mildly hydrolysed whey protein concentrate (FIG. 2), a mildly hydrolysed whey protein isolate (see FIG. 3) and a synthesised peptide from. Table 1, namely MKG (SEQ ID NO: 2) (see FIG. 4). The WPC was prepared according to the methodology set out in example 1 of WO 99/65326.
# Acute or short term effects of agents were determined by treating adult SHRs with the agent and then studying their blood pressure responses over the following hours. The study detects if an agent lowers blood pressure that is already elevated.
pIC50 (ACE-I enzyme),Compound,Reduction in systolic blood pressure compared to control rats [1]
4.96,"VSLPEW [Peptide 5, VSLPEW]",–
4.48,"LIVTQ [Peptide 4, LIVTQ]",–
5.27,LKGYGGVSLPEW [Peptide 7],–
4.39,"ALPMH [Peptide 3, ALPMH]",–

# Further lines, the compound ahead of its results:
Compound,pIC50 (ACE-I enzyme),Reduction in systolic blood pressure compared to control rats [1]
"C[C@H](NC(=O)[C@@H](N)CO)C(=O)N1CCC[C@H]1C(=O)O [Peptide 1, SAP] (H-Ser-Ala-Pro-OH; N-terminus and C-terminus assumed)",4.09,–
"CSCC[C@H](N)C(=O)N[C@@H](CCCCN)C(=O)NCC(=O)O [Peptide 2, MKG] (H-Met-Lys-Gly-OH; N-terminus and C-terminus assumed)",4.16,much greater reduction in blood pressure
